Measurements as given in US11878975B2, “Substituted indole compounds useful as TLR inhibitors” (BRISTOL-MYERS SQUIBB COMPANY, priority 2017, dated 2024).

What was measured:
Assay type in all cases: cell-based
human TLR8 = biological target: T1, human TLR8 (Homo sapiens, UniProt Q9NR97); experiment: TLR8 inhibition reporter assay (HEK-Blue cells, SEAP reporter, R848 stimulation); conditions: HEK-Blue cells overexpressing human TLR8, SEAP reporter, R848 15.9 μM
T1 construct: host or cells: HEK-Blue cells
T1 sequence (Q9NR97 27-1041): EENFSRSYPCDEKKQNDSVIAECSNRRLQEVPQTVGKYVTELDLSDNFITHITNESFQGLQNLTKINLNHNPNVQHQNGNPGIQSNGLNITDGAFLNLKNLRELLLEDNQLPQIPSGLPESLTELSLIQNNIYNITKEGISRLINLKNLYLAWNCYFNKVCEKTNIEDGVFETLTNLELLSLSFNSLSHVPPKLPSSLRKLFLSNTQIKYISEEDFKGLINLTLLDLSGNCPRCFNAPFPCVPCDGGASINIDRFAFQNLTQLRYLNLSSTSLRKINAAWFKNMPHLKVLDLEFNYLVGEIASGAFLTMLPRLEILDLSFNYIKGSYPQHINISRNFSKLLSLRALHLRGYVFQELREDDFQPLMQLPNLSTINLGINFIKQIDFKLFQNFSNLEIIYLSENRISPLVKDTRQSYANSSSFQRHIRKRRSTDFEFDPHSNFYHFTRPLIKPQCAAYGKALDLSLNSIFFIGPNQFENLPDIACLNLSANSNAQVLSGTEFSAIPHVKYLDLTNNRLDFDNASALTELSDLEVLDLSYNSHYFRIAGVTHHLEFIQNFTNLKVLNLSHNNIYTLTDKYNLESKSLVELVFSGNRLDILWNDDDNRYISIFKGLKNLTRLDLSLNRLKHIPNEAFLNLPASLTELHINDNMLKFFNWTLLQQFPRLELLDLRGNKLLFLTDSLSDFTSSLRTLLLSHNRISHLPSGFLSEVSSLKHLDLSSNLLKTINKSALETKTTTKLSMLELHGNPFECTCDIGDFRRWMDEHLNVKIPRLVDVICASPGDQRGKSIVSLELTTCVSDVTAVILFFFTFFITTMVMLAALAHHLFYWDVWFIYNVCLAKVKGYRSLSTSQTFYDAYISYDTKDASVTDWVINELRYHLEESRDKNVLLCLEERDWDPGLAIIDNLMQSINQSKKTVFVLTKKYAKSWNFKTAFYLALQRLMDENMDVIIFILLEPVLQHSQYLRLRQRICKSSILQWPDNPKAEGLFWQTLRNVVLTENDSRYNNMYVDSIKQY
Procedure, shortened: (§1)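 Ligand levels: TLR7 gardiquimod 7.5 μM, TLR8 R848 15.9 μM, TLR9 ODN2006 5 nM, added after 30 min room-temperature compound pre-incubation at 0.05 nM-50 μM. Reporter SEAP read with HEK-Blue Detection reagent after 22 h, 37° C. Inhibition expressed as % reduction relative to agonist-plus-DMSO and known-inhibitor controls.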

human TLR7 = biological target: T2, human TLR7 (Homo sapiens, UniProt Q9NYK1); experiment: TLR7 inhibition reporter assay (HEK-Blue cells, SEAP reporter, gardiquimod stimulation); conditions: HEK-Blue cells overexpressing human TLR7, SEAP reporter, gardiquimod 7.5 μM
T2 construct: host or cells: HEK-Blue cells
T2 sequence (Q9NYK1 27-1049): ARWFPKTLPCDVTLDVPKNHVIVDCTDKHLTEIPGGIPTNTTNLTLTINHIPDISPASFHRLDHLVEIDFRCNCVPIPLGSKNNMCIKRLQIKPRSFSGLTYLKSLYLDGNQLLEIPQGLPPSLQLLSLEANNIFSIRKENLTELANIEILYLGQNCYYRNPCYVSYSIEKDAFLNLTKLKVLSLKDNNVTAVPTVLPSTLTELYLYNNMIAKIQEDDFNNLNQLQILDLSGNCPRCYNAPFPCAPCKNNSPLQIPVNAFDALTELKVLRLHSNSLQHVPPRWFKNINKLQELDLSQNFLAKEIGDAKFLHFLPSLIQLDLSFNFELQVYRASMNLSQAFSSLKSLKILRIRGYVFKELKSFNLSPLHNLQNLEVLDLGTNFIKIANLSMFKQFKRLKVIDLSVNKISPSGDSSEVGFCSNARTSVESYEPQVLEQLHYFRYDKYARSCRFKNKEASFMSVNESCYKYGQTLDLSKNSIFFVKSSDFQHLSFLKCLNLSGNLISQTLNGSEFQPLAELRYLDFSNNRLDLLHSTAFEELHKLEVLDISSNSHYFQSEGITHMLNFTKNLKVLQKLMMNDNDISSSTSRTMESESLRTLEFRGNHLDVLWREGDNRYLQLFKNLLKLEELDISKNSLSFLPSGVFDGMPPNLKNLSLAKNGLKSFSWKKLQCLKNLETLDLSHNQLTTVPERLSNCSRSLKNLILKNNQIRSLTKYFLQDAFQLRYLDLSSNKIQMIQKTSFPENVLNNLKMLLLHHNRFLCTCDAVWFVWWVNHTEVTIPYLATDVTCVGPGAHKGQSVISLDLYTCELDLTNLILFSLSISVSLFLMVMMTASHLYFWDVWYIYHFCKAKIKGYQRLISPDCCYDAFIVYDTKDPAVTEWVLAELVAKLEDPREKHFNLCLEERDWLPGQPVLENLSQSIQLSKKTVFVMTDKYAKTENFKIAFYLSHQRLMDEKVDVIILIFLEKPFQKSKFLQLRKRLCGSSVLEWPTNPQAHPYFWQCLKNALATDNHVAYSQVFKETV
Procedure, shortened: as §1

human TLR9 = biological target: T3, human TLR9 (Homo sapiens, UniProt Q9NR96); experiment: TLR9 inhibition reporter assay (HEK-Blue cells, SEAP reporter, ODN2006 stimulation); conditions: HEK-Blue cells overexpressing human TLR9, SEAP reporter, ODN2006 5 nM
T3 construct: host or cells: HEK-Blue cells
T3 sequence (Q9NR96 26-1032): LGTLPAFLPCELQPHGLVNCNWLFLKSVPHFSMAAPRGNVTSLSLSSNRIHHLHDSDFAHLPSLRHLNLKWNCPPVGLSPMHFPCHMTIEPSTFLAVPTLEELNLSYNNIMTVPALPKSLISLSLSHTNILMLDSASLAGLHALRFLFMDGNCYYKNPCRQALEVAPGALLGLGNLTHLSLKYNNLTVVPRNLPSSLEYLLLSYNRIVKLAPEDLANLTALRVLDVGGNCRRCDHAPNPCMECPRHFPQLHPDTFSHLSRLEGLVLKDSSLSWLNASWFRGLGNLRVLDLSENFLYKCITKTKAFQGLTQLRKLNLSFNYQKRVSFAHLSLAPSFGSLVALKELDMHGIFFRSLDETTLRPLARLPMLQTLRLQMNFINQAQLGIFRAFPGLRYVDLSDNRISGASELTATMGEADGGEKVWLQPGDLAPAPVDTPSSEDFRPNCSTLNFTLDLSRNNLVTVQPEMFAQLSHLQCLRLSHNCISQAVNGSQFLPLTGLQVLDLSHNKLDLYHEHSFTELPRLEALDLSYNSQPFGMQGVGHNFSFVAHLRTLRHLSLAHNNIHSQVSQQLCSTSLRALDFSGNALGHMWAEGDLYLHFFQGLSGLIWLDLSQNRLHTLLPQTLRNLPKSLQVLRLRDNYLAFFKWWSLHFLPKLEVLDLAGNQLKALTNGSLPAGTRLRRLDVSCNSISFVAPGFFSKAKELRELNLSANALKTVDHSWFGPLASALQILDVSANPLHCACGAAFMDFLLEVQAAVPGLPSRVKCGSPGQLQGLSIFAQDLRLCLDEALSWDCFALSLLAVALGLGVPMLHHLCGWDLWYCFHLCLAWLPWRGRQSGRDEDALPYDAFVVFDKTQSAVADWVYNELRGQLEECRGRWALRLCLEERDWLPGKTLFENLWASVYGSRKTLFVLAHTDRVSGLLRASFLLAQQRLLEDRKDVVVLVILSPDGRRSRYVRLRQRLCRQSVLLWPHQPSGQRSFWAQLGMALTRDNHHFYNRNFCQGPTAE
Procedure, shortened: as §1

SMILES	IC50 (human TLR8) [nM]	IC50 (human TLR7) [nM]	IC50 (human TLR9) [µM]
CNC1CCC(c2ccc3[nH]c(-c4cc(C)nc(C)c4)c(C(C)C)c3c2)CC1 (single isomer, unassigned) [Example 52]	1.8	0.42	0.331
Cc1c(-c2[nH]c3ccc(C4CC5CN(CC6(C)COC6)CC5C4)cc3c2C(C)C)cn2cnnc2c1C (stereo not drawn) [Example 561]	25	5	4.68
COCCN1CC(c2ccc3[nH]c(-c4cn(C)c(=O)c(C)c4C)c(C(C)C)c3c2)C1 [Example 487]	5.8	45	10.5
Cc1c(-c2[nH]c3ccc(C4CCC(N(C)C)CC4)cc3c2C(C)C)cn(C)c(=O)c1C (stereo not drawn) [Example 475]	28	26	10.6
Cc1cc(-c2[nH]c3ccc(C4CCC(C)(O)CC4)cc3c2C(C)C)cc(C)n1 (single isomer, unassigned) [Example 169]	293	29	41.3
Cc1cc(-c2[nH]c3ccc(C4CN(C(=O)CN(C)C)CCO4)cc3c2C(C)C)cc(C)n1 (stereo not drawn) [Example 335]	12	5	0.729
COc1cc(-c2[nH]c3ccc(CCN4CCOCC4)cc3c2C(C)C)cn2ncnc12 [Example 411]	7.9	7	8.96
COc1ccc(-c2[nH]c3ccc(C4CCC(O)CC4)cc3c2C(C)C)cc1OC (stereo not drawn) [Example 452]	737	242	46.5
CNC(=O)CN1CC(c2ccc3[nH]c(-c4cn5ncnc5c(C)c4C)c(C(C)C)c3c2)OCC1(C)C (stereo not drawn) [Example 389]	51	22	> 50
CNC(=O)CNC1CCC(c2ccc3[nH]c(-c4cc(OC)c5ncnn5c4)c(C(C)C)c3c2)CC1 (stereo not drawn) [Example 167]	0.62	0.22	1.29
CNCC(=O)N1CC(c2ccc3[nH]c(-c4cc(C)c5ncnn5c4)c(C(C)C)c3c2)C1 [Example 267, 1-(3-(3-isopropyl-2-(8-methyl-[1,2,4]triazolo[1,5-a]pyridin-6-yl)-1H-indol-5-yl)azetidin-1-yl)-2-(methylamino)ethan-1-one]	5.5	0.96	2
Cc1c(-c2[nH]c3ccc(C4CNC4)cc3c2C(C)C)cn2ncnc2c1C [Example 545]	3.8	2	2.04
Cc1c(-c2[nH]c3ccc(C4CN(CC(=O)N(C)C)CCO4)cc3c2C(C)C)cn2ncnc2c1C (stereo not drawn) [Example 321]	25	15	> 50
Cc1cc(-c2[nH]c3ccc(CCN4CCC(F)CC4)cc3c2C(C)C)cn(C)c1=O [Example 407]	1.4	9	13.6
COc1cc(-c2[nH]c3ccc(C4CCC(NCC(=O)NC5COC5)CC4)cc3c2C(C)C)cn2ncnc12 (stereo not drawn) [Example 164]	7.1	1	1.92
CNCCN1CCCC(c2ccc3[nH]c(-c4ccnc(C)c4)c(C(C)C)c3c2)C1 (stereo not drawn) [Example 256]	3.2	226	0.611
CCc1c(-c2ccnc(C)c2)[nH]c2ccc(CNC(=O)C3CCNC3)cc12 (stereo not drawn) [Example 445]	3240	2680	1.62
Cc1cc(-c2[nH]c3ccc(C4CN(CC(=O)N(C)C)CCO4)cc3c2C(C)C)cn2ncnc12 (stereo not drawn) [Example 306, 2-(2-(3-isopropyl-2-(8-methyl-[1,2,4]triazolo[1,5-a]pyridin-6-yl)-1H-indol-5-yl)morpholino)-N,N-dimethylacetamide]	39	8	> 50
CCc1c(-c2ccnc(C)c2)[nH]c2ccc(CNC(=O)C3CC4(CCNCC4)C3)cc12 [Example 447]	14	4010	1.14
Cc1cc(-c2[nH]c3ccc(C4CN(C5COC5)CCO4)cc3c2C(C)C)cn2ncnc12 (stereo not drawn) [Example 289, 2-(3-isopropyl-2-(8-methyl-[1,2,4]triazolo[1,5-a]pyridin-6-yl)-1H-indol-5-yl)-4-(oxetan-3-yl)morpholine]	24	9	> 50
Cc1cc(-c2[nH]c3ccc(C4CCCCC4)cc3c2C(C)C)cc(C)n1 [Example 469]	3130	1110	9.02
Cc1c(-c2[nH]c3ccc(C4CCC(N(C)C5COC5)CC4)cc3c2C(C)C)cn2cnnc2c1C (stereo not drawn) [Example 528]	16	2	5.6
Cc1cc(-c2[nH]c3ccc(CCN4CC[C@H](F)C4)cc3c2C(C)C)cn(C)c1=O [Example 408]	2.3	15	13
CNC(=O)CNC1CCC(c2ccc3[nH]c(-c4cc(OC)c5ncnn5c4)c(C(C)C)c3c2)CC1 (stereo not drawn) [Example 166]	18	4	16.9
